Literature values as cited in patent publication US20110207823A1, “12-HOUR SUSTAINED-RELEASE METOCLOPRAMIDE” (POSIVISIONARY SOLUTIONS LLP, priority 2008, published 2011).

Conditions: immediate release dosages

SMILES: CCN(CC)CCNC(=O)c1cc(Cl)c(N)cc1OC [metoclopramide, Metoclopramide]
- metoclopramide peaks in plasma with undesirable side effects (akathisia): above 100 nanograms per milliliter
